Key:
[1] = Amount of fragrance ingredients retained on paper blotter after evaporation (ethanol extraction, GC-MS); type: physicochemical
How it was run: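 100 µL of fragrance formulation applied to paper blotters kept at 32°C open to air; at each time three blotters extracted 1 h in ethanol with methyl decanoate internal standard and analysed by GC-MS (HP-5MS, 50–280°C). Amounts averaged over triplicates and expressed as percent of time-zero level.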

[2] = Headspace concentration of fragrance ingredients over blotter (thermal desorption GC-MS); type: physicochemical;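 for headspace concentration in composition C1 compared to control EdT1: C1 is an invention composition and EdT1 a conventional EdT of fragrance TAK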
How it was run: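 Fragrance (100µL) applied to a 10 cm perfumers' blotter held on a 32°C hot plate, equilibrated 5 min; headspace drawn through Tenax TA tubes at 17mL/min until 280mL collected, repeated at later sampling times. Tubes thermally desorbed splitless onto HP-5MS column, GC-MS detection, mass range 35 to 350.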

## CC(=O)OC1CCCCC1C(C)(C)C (centres unmarked) [Verdox™, (2-tert-butylcyclohexyl) acetate]
[1]; Table 3, fragrance TAK in C1, 15 min, 32°C
  amount of fragrance ingredient retained on blotter (percentage of the initial amount): 80%
[1]; Table 3, fragrance TAK in C1, 60 min, 32°C
  amount of fragrance ingredient retained on blotter (percentage of the initial amount): 62%
[1]; Table 3, fragrance TAK in C1, 120 min, 32°C
  amount of fragrance ingredient retained on blotter (percentage of the initial amount): 39%
[1]; Table 3, fragrance TAK in C1, 240 min, 32°C
  amount of fragrance ingredient retained on blotter (percentage of the initial amount): 18%
[1]; Table 3, fragrance TAK in C1, 480 min, 32°C
  amount of fragrance ingredient retained on blotter (percentage of the initial amount): 2%
[1]; Table 3, fragrance TAK in EdT1, 15 min, 32°C
  amount of fragrance ingredient retained on blotter (percentage of the initial amount): 70%
[1]; Table 3, fragrance TAK in EdT1, 60 min, 32°C
  amount of fragrance ingredient retained on blotter (percentage of the initial amount): 29%
[1]; Table 3, fragrance TAK in EdT1, 120 min, 32°C
  amount of fragrance ingredient retained on blotter (percentage of the initial amount): 2%
[1]; Table 3, fragrance TAK in EdT1, 240 min, 32°C
  amount of fragrance ingredient retained on blotter (percentage of the initial amount): <1%
[1]; Table 3, fragrance TAK in EdT1, 480 min, 32°C
  amount of fragrance ingredient retained on blotter (percentage of the initial amount): 1%
[1]; Table 3, fragrance TAK in EdT1 or C1, T0, set at 100% (normalisation)
  amount of fragrance ingredient retained on blotter (percentage of the initial amount): 100%
[1]; Table 4, fragrance TAK in C2, 15 min, 32°C
  amount of fragrance ingredient retained on blotter (percentage of the initial amount): 92%
[1]; Table 4, fragrance TAK in C2, 480 min, 32°C
  amount of fragrance ingredient retained on blotter (percentage of the initial amount): 3%
[1]; Table 4, fragrance TAK in EdT1, 15 min, 32°C
  amount of fragrance ingredient retained on blotter (percentage of the initial amount): 74%
[1]; Table 4, fragrance TAK in EdT1, 480 min, 32°C
  amount of fragrance ingredient retained on blotter (percentage of the initial amount): <1%
[1]; Table 4, fragrance TAK in EdT1 or C2, T0, set at 100% (normalisation)
  amount of fragrance ingredient retained on blotter (percentage of the initial amount): 100%
[1]; Table 5, fragrance TAK in C3, 15 min, 32°C
  amount of fragrance ingredient retained on blotter (percentage of the initial amount): 83%
[1]; Table 5, fragrance TAK in C3, 60 min, 32°C
  amount of fragrance ingredient retained on blotter (percentage of the initial amount): 64%
[1]; Table 5, fragrance TAK in C3, 120 min, 32°C
  amount of fragrance ingredient retained on blotter (percentage of the initial amount): 44%
[1]; Table 5, fragrance TAK in C3, 240 min, 32°C
  amount of fragrance ingredient retained on blotter (percentage of the initial amount): 27%
[1]; Table 5, fragrance TAK in C3, 480 min, 32°C
  amount of fragrance ingredient retained on blotter (percentage of the initial amount): 3%
[1]; Table 5, fragrance TAK in C3, 1440 min, 32°C
  amount of fragrance ingredient retained on blotter (percentage of the initial amount): <1%
[1]; Table 5, fragrance TAK in EdT1, 15 min, 32°C
  amount of fragrance ingredient retained on blotter (percentage of the initial amount): 70%
[1]; Table 5, fragrance TAK in EdT1, 60 min, 32°C
  amount of fragrance ingredient retained on blotter (percentage of the initial amount): 27%
[1]; Table 5, fragrance TAK in EdT1, 120 min, 32°C
  amount of fragrance ingredient retained on blotter (percentage of the initial amount): 2%
[1]; Table 5, fragrance TAK in EdT1, 240 min, 32°C
  amount of fragrance ingredient retained on blotter (percentage of the initial amount): <1%
[1]; Table 5, fragrance TAK in EdT1, 480 min, 32°C
  amount of fragrance ingredient retained on blotter (percentage of the initial amount): 1%
[1]; Table 5, fragrance TAK in EdT1, 1440 min, 32°C
  amount of fragrance ingredient retained on blotter (percentage of the initial amount): <1%
[1]; Table 5, fragrance TAK in EdT1 or C3, T0, set at 100% (normalisation)
  amount of fragrance ingredient retained on blotter (percentage of the initial amount): 100%
[1]; Table 6, fragrance TAK in C4, 15 min, 32°C
  amount of fragrance ingredient retained on blotter (percentage of the initial amount): 83%
[1]; Table 6, fragrance TAK in C4, 60 min, 32°C
  amount of fragrance ingredient retained on blotter (percentage of the initial amount): 64%
[1]; Table 6, fragrance TAK in C4, 120 min, 32°C
  amount of fragrance ingredient retained on blotter (percentage of the initial amount): 36%
[1]; Table 6, fragrance TAK in C4, 240 min, 32°C
  amount of fragrance ingredient retained on blotter (percentage of the initial amount): 18%
[1]; Table 6, fragrance TAK in C4, 480 min, 32°C
  amount of fragrance ingredient retained on blotter (percentage of the initial amount): 3%
[1]; Table 6, fragrance TAK in EdT1, 15 min, 32°C
  amount of fragrance ingredient retained on blotter (percentage of the initial amount): 70%
[1]; Table 6, fragrance TAK in EdT1, 60 min, 32°C
  amount of fragrance ingredient retained on blotter (percentage of the initial amount): 29%
[1]; Table 6, fragrance TAK in EdT1, 120 min, 32°C
  amount of fragrance ingredient retained on blotter (percentage of the initial amount): 2%
[1]; Table 6, fragrance TAK in EdT1, 240 min, 32°C
  amount of fragrance ingredient retained on blotter (percentage of the initial amount): <1%
[1]; Table 6, fragrance TAK in EdT1, 480 min, 32°C
  amount of fragrance ingredient retained on blotter (percentage of the initial amount): 1%
[1]; Table 6, fragrance TAK in EdT1 or C4, T0, set at 100% (normalisation)
  amount of fragrance ingredient retained on blotter (percentage of the initial amount): 100%
[1]; Table 9, fragrance COM1 in C5, T0 + 15 min
  amount of fragrance ingredient retained on blotter (percentage of the initial amount): 75.1%
[1]; Table 9, fragrance COM1 in C5, T0 + 480 min
  amount of fragrance ingredient retained on blotter (percentage of the initial amount): 1.9%
[1]; Table 9, fragrance COM1 in C5, T0 +1440 min
  amount of fragrance ingredient retained on blotter (percentage of the initial amount): <1%
[1]; Table 9, fragrance COM1 in C6, T0 + 15 min
  amount of fragrance ingredient retained on blotter (percentage of the initial amount): 66.4%
[1]; Table 9, fragrance COM1 in C6, T0 + 480 min
  amount of fragrance ingredient retained on blotter (percentage of the initial amount): 1.7%
[1]; Table 9, fragrance COM1 in C6, T0 +1440 min
  amount of fragrance ingredient retained on blotter (percentage of the initial amount): 1.0%
[1]; Table 9, fragrance COM1 in EdT2, C5 or C6, T0, set at 100% (normalisation)
  amount of fragrance ingredient retained on blotter (percentage of the initial amount): 100%
[1]; Table 9, fragrance COM1 in EdT2, T0 + 15 min
  amount of fragrance ingredient retained on blotter (percentage of the initial amount): 61.7%
[1]; Table 9, fragrance COM1 in EdT2, T0 + 480 min
  amount of fragrance ingredient retained on blotter (percentage of the initial amount): 3.7%
[1]; Table 9, fragrance COM1 in EdT2, T0 +1440 min
  amount of fragrance ingredient retained on blotter (percentage of the initial amount): 2.90%
[2]; COM1 dosed at 20 wt%, up to 8 hours, Figures 8 to 10
  headspace concentration in composition C8 compared to control EdT4: significantly higher
[2]; fragrance TAK, T0 + 4h, Figure 3
  headspace concentration in composition C1 compared to control EdT1: significantly greater
[2]; fragrance TAK, T0+4h and T0+8h, Figures 17 and 18
  headspace concentration in composition C14 compared to control EdT1: significantly greater
[2]; fragrance TAK, T0+4h and T0+8h, Figures 20 and 21, difference significant for linalool, linalyl acetate and Verdox™
  headspace concentration in composition C15 compared to control EdT1: greater
[2]; fragrance TAK, T0 + 8h, Figure 4
  headspace concentration in composition C1 compared to control EdT1: much greater
[2]; fragrance TAK, after 1 hour, Figure 2
  headspace concentration in composition C1 compared to control EdT1: greater
